What follows are molecules tested against T1, POLγ W748S + E1143G (Homo sapiens, UniProt P54098, E1143G/W748S) (assay: DNA polymerization assay, W748S + E1143G mutant). Conditions: stimulation of polymerase activity, primed M13mp18 ssDNA, 37° C. 2 hours.
T1 sequence (P54098 1-1239 W748S/E1143G): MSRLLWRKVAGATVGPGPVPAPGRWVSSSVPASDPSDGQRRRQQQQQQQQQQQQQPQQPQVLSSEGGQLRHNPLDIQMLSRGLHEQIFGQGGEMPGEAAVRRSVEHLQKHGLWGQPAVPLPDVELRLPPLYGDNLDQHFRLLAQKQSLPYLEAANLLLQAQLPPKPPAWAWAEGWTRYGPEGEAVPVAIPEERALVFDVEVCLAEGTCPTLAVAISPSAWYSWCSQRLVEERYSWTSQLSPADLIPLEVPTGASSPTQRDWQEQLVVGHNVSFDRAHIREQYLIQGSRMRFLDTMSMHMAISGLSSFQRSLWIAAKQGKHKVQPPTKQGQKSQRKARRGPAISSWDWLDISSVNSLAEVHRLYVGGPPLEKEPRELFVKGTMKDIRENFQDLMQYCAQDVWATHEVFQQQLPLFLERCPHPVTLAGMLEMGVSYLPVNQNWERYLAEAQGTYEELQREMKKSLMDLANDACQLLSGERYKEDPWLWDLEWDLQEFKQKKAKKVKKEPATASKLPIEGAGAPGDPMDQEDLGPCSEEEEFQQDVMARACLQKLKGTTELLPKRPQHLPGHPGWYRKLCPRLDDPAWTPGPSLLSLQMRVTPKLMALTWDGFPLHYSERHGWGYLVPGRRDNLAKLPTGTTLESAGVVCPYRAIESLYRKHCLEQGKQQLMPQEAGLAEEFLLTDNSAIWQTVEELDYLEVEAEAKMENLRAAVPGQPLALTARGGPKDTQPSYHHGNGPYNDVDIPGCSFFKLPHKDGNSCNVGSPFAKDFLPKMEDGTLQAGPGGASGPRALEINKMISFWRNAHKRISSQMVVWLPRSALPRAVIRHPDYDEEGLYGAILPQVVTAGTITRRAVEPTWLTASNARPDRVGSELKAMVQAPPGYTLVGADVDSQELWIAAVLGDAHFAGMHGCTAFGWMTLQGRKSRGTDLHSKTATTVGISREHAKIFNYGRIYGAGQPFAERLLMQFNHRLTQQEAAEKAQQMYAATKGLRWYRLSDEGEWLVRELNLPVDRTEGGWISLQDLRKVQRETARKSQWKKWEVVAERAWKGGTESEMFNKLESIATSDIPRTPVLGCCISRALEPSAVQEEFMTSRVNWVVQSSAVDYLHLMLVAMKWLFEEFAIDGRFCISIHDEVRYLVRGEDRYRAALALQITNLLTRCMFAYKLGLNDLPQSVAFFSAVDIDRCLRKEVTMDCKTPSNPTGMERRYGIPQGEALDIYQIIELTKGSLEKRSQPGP
T1 sequence (Q9UHN1 1-485 partner): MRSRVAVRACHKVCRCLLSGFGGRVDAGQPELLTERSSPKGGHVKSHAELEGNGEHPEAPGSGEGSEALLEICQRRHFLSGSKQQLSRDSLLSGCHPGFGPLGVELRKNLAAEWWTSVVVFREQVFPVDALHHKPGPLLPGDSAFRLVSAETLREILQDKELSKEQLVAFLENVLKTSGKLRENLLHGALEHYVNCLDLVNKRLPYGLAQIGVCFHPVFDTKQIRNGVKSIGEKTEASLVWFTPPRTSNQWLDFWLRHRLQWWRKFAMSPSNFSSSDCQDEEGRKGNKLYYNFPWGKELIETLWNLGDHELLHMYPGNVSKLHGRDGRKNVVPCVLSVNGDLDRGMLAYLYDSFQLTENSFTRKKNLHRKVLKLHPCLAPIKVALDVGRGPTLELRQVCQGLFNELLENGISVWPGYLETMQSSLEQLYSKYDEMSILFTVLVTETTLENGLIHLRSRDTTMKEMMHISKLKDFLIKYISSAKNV
Assay type: biochemical
Procedure: DNA Polymerization Assay to Monitor Effects on Human Wildtype POLγ and Four Disease-Causing Mutant Variants of Human POLγ.
The ability of small molecules to stimulate the polymerase activity of POLγ was analyzed in a quantitative fluorescence SYBR Green I assay with fluorescence intensity (FI) readout.
In the presence of dNTPs, wild type human POLγ and mutant derivatives thereof were incubated with single-stranded, circular M13mp18 ssDNA hybridized to a short DNA oligonucleotide that functions as a primer for initiation of DNA synthesis. POLγ and mutant derivatives thereof will extend the primer and use the M13mp18 molecule as a template to synthesize long stretches of double-stranded DNA. SYBR Green I, which is a double-stranded DNA-binding dye, was used to quantify formation of double-stranded DNA in the reaction. When bound to double-stranded DNA, SYBR Green I fluorescence increases by up to 100-fold.
The assay was performed in the 384-well plate format. Upon addition of compounds, changes in double-stranded DNA synthesis activity can be monitored by following effects on fluorescent intensity.
The reactions also contained the accessory POLγB subunit, and the human mitochondrial single-stranded DNA binding protein (mtSSB).
The DNA template mixture used in the assay contained 0.5 nM primed M13 mp18 ssDNA, 400 nM mtSSB, 0.1 mM Tris-HCl (pH 8.0), 0.1 mM dNTP, 10 mM MgCl2, 0.1 mg/mL BSA, 1 mM TCEP solution, and 0.02% Triton X-100. The DNA template mixture for the wild type protein contained either 100 μM dNTP, 1 μM dNTP, or 0.1 μM dNTP, designated in Table 2 as 100 μM, 1 μM, and 0.1 μM, respectfully.
Microplates with compounds (0.1 μL in each well) to be tested in the assay were prepared from 10 mM compound stocks in 100% DMSO, and equal amounts of DMSO without any compound were added to positive and negative control wells.
The protein mixture was dispensed (5 μL into each well) into compound plates and incubated at 37° C. for 15 minutes. After incubation, 5 μL of the DNA template mixture was dispensed into each well. The plates were then incubated at 37° C. for 2 hours.
During incubation, a combined stop buffer and detection reagent solution was prepared. The buffer contained 25 mM EDTA (pH 8.0), 0.02% Triton X-100, and SYBR Green I [Invitrogen] diluted 10,000× (for fluorescent readout). EDTA will stop the enzymatic reaction by chelating magnesium ions.

**Q.** With Cc1csc(-c2cccc(NS(=O)(=O)c3cc(C)c(Cl)cc3C)c2)n1 [Example 20, 4-chloro-2,5-dimethyl-N-(3-(4-methylthiazol-2-yl)phenyl)benzenesulfonamide] as the molecule, how does the AC50 read?
**A.** 2 µM

**Q.** Cc1cnc(-c2cccc(NS(=O)(=O)c3cc(C)c(Cl)cc3C)c2)s1 [Example 21, 4-chloro-2,5-dimethyl-N-(3-(5-methylthiazol-2-yl)phenyl)benzenesulfonamide] was tested. Which AC50 did it give?
**A.** 3 µM

**Q.** Which AC50 does the source give for Cc1cc(S(=O)(=O)N(C)c2cccc(-c3nccs3)c2)c(C)cc1Cl [Example 22, 4-chloro-N,2,5-trimethyl-N-(3-(thiazol-2-yl)phenyl)benzenesulfonamide] here?
**A.** > 100 µM

**Q.** Cc1cc(S(=O)(=O)Nc2cccc(C(=O)N[C@H](C)c3ccccc3)c2)c(C)cc1Cl [Example 48, (R)-3-((4-chloro-2,5-dimethylphenyl)sulfonamido)-N-(1-phenylethyl)benzamide] was tested. Which AC50 did it give?
**A.** 9 µM

**Q.** Which AC50 does the source give for Cc1cc(S(=O)(=O)Nc2cc(-c3nccs3)ccc2F)c(C)cc1Cl [Example 61, 4-chloro-N-(2-fluoro-5-(thiazol-2-yl)phenyl)-2,5-dimethylbenzenesulfonamide] here?
**A.** 0.7 µM

**Q.** With Cc1cc(S(=O)(=O)Nc2cc(F)cc(-c3nccs3)c2)c(C)cc1Cl [Example 62, 4-chloro-N-(3-fluoro-5-(thiazol-2-yl)phenyl)-2,5-dimethylbenzenesulfonamide] as the molecule, how does the AC50 read?
**A.** > 100 µM

**Q.** Cc1cc(S(=O)(=O)Nc2ccc(F)c(-c3nccs3)c2)c(C)cc1Cl [Example 63, 4-chloro-N-(4-fluoro-3-(thiazol-2-yl)phenyl)-2,5-dimethylbenzenesulfonamide] was tested. Which AC50 did it give?
**A.** > 100 µM

**Q.** For Cc1cc(S(=O)(=O)Nc2cccc(-c3cc(C4CC4)[nH]n3)c2)c(C)cc1Cl [Example 64, 4-chloro-N-(3-(5-cyclopropyl-1H-pyrazol-3-yl)phenyl)-2,5-dimethylbenzenesulfonamide], which AC50 is on record?
**A.** 4 µM

**Q.** CC[C@@H]1CCCN1C(=O)c1cccc(NS(=O)(=O)c2cc(C)c(Cl)cc2C)c1 [Example 65, (R)-4-chloro-N-(3-(2-ethylpyrrolidine-1-carbonyl)phenyl)-2,5-dimethylbenzenesulfonamide] was tested. Which AC50 did it give?
**A.** 7 µM

**Q.** Which AC50 does the source give for Cc1cc(-c2cccc(NS(=O)(=O)c3cc(C)c(Cl)cc3C)c2)n[nH]1 [Example 66, 4-chloro-2,5-dimethyl-N-(3-(5-methyl-1H-pyrazol-3-yl)phenyl)benzenesulfonamide] here?
**A.** 5 µM

**Q.** With Cc1cc(S(=O)(=O)Nc2cccc(C(=O)N3CCC[C@H]3C(C)C)c2)c(C)cc1Cl [Example 67, (S)-4-chloro-N-(3-(2-isopropylpyrrolidine-1-carbonyl)phenyl)-2,5-dimethylbenzenesulfonamide] as the molecule, how does the AC50 read?
**A.** 21 µM

**Q.** Which AC50 does the source give for Cc1cc(S(=O)(=O)Nc2cccc(-c3cc[nH]n3)c2)c(C)cc1Cl [Example 68, N-(3-(1H-pyrazol-3-yl)phenyl)-4-chloro-2,5-dimethylbenzenesulfonamide] here?
**A.** 2 µM

**Q.** Cc1cc(S(=O)(=O)Nc2csc(C(=O)N3CCCC3)n2)c(C)cc1Cl [Example 166, 4-chloro-2,5-dimethyl-N-(2-(pyrrolidine-1-carbonyl)thiazol-4-yl)benzenesulfonamide] was tested. Which AC50 did it give?
**A.** 0.4 µM

**Q.** How did the AC50 turn out when Cc1cc(S(=O)(=O)Nc2csc(C3CCOCC3)n2)c(C)cc1Cl [Example 167, 4-chloro-2,5-dimethyl-N-(2-(tetrahydro-2H-pyran-4-yl)thiazol-4-yl)benzenesulfonamide] was run?
**A.** 2 µM

**Q.** How did the AC50 turn out when Cc1cc(S(=O)(=O)Nc2cn(Cc3ccccc3)cn2)c(C)cc1Cl [Example 168, N-(1-benzyl-1H-imidazol-4-yl)-4-chloro-2,5-dimethylbenzenesulfonamide] was run?
**A.** > 100 µM

**Q.** Cc1cc(S(=O)(=O)Nc2cn(-c3ccccc3)cn2)c(C)cc1Cl [Example 169, 4-chloro-2,5-dimethyl-N-(1-phenyl-1H-imidazol-4-yl)benzenesulfonamide] was tested. Which AC50 did it give?
**A.** > 100 µM

**Q.** Which AC50 does the source give for Cc1cc(S(=O)(=O)Nc2cn(C)c(-c3ccccc3)n2)c(C)cc1Cl [Example 170, 4-chloro-2,5-dimethyl-N-(1-methyl-2-phenyl-1H-imidazol-4-yl)benzenesulfonamide] here?
**A.** > 10 µM

**Q.** For Cc1cc(S(=O)(=O)Nc2cnn(-c3ccccc3)n2)c(C)cc1Cl [Example 171, 4-chloro-2,5-dimethyl-N-(2-phenyl-2H-1,2,3-triazol-4-yl)benzenesulfonamide], which AC50 is on record?
**A.** > 10 µM

**Q.** For Cc1cc(S(=O)(=O)Nc2csc(C(=O)N(C)CC(N)=O)n2)c(C)cc1Cl [Example 172, N-(2-amino-2-oxoethyl)-4-((4-chloro-2,5-dimethylphenyl)sulfonamido)-N-methylthiazole-2-carboxamide], which AC50 is on record?
**A.** > 100 µM

**Q.** For Cc1cc(S(=O)(=O)Nc2csc(-c3ccccn3)n2)c(C)cc1Cl [Example 173, 4-chloro-2,5-dimethyl-N-(2-(pyridin-2-yl)thiazol-4-yl)benzenesulfonamide], which AC50 is on record?
**A.** 0.4 µM

**Q.** With Cc1cc(S(=O)(=O)Nc2csc(C(=O)N3CCC[C@H]3C)n2)c(C)cc1Cl [Example 174, (R)-4-chloro-2,5-dimethyl-N-(2-(2-methylpyrrolidine-1-carbonyl)thiazol-4-yl)benzenesulfonamide] as the molecule, how does the AC50 read?
**A.** 0.7 µM

**Q.** With Cc1cc(S(=O)(=O)Nc2csc(-c3ccncc3)n2)c(C)cc1Cl [Example 176, 4-chloro-2,5-dimethyl-N-(2-(pyridin-4-yl)thiazol-4-yl)benzenesulfonamide] as the molecule, how does the AC50 read?
**A.** 0.3 µM

**Q.** Which AC50 does the source give for Cc1cc(S(=O)(=O)Nc2csc(C(=O)N(CC(N)=O)C3CCCC3)n2)c(C)cc1Cl [Example 177, N-(2-amino-2-oxoethyl)-4-((4-chloro-2,5-dimethylphenyl)sulfonamido)-N-cyclopentylthiazole-2-carboxamide] here?
**A.** > 100 µM

**Q.** For Cc1cc(S(=O)(=O)Nc2csc(-n3cccn3)n2)c(C)cc1Cl [Example 178, N-(2-(1H-pyrazol-1-yl)thiazol-4-yl)-4-chloro-2,5-dimethylbenzenesulfonamide], which AC50 is on record?
**A.** 1 µM

Reference: patent publication US20260138961A1, “MODULATORS OF MITOCHONDRIAL DNA REPLICATION” (Pretzel Therapeutics, Inc., priority 2022, published 2026)
